Assay results reported in patent publication US20260266828A1, “BIOMARKERS FOR PREDICTING CANCER TREATMENT EFFICACY” (Arcus Biosciences, Inc., priority 2023, published 2026).

What was measured:
MC38 tumors = experiment: Flow cytometry phenotyping of MC38 tumors and tdLN after treatment; assay type: in vivo, mouse; settings: three days after the first OXA exposure
Procedure: Methods—Mouse tumor-infiltrating lymphocyte and lymph node phenotyping. MC38 tumors were minced with scissors and dissociated with tumor digestion buffer [RPMI 1640 supplemented with 20% FBS, 0.25 mg/mL Collagenase D (Roche), and 100 KUnits/mL Type IV DNase I (Sigma-Aldrich)]. Single-cell tumor suspensions were passed through a 70 μm cell strainer and washed. Inguinal lymph nodes were collected from the same side as the tumor (tumor-draining lymph node, tdLN), minced, passed through a 70 μm cell strainer and washed. A total of 1×10^6 tumor or lymph node cells per well were incubated at room temperature (RT) with live-dead NIR (Invitrogen) and anti-mouse CD16/CD32 Fc block (BD Biosciences). For p15E tetramer staining, cells were washed and incubated with tetramer at RT. Cells were stained for surface and intracellular markers and analyzed by flow cytometry as indicated above.
In vivo experiments were performed at Arcus Biosciences in accordance with federal, state, and institutional guidelines and were approved by Arcus Biosciences' Institutional Animal Care and Use Committee. Female 6-8 week old C57BL/6J mice were purchased from Charles River Laboratories. Mice were injected subcutaneously on the right flank with 1×10^6 MC38 cells in 100 μL PBS. Once tumors were established (sized indicated in figure legends), mice were randomized into groups based on tumor size distribution. […] The dosing regimens for anti-PD-1 and anti-TIGIT were determined via receptor occupancy (RO) assays using commercially available a competitive anti-TIGIT antibody (clone GIGD7), a non-competitive PD-1 antibody (clone J43) as well as direct detection of both anti-TIGIT and anti-PD-1 via secondary antibody (Jackson Immunoresearch anti-mouse IgG, Fcγ subclass 2a specific). The dosing regimen for FTY720 was determined in naïve C57BL/6 females by examining lymphocyte frequencies and numbers in the blood 24 h after dosing. Tumor volume was monitored with digital calipers and volume was calculated using the formula: (Length×Width^2)/2. […]

MC38 cells [1] = experiment: In vitro oxaliplatin treatment of MC38 cells, flow cytometry of PD-L1 and CD155; assay type: cell-based, mouse; settings: dying cells, ≥1 μM, 22 h
Procedure: (§1) Lines and error represent the mean±standard deviation (SD) of biological triplicates. […] In FIG. 5B and FIG. 5C, lines and error represent the mean±SD of biological duplicates.
(§2) For flow cytometry, MC38 cells were plated in supplemented RPMI medium at 1×10^5 cells/well in a 12-well tissue culture plate. For CellTiter-Glo (Promega) analysis, cells were plated in supplemented RPMI medium at 5×10^3 cells/well in a 96-well white flat-bottom tissue culture plate. […] Data were normalized to PBS treated cells. For flow cytometry, cells were harvested using a cell scraper, and transferred into a 96-well round-bottom plate for staining. Cells were washed, incubated with live-dead aqua and anti-mouse CD16/CD32 Fc block at RT followed by cell surface staining with anti-mouse PD-L1 BV711 (clone MIH4, BD Biosciences) and anti-mouse CD155 BUV395 (clone 3F1, BD Biosciences) at 4° C. Cells were washed, fixed with IC fixation buffer (Invitrogen) at RT, washed again, and resuspended in PBS for flow cytometry.

MC38 cells [2] = settings: 1 μM, 72 hours
Procedure: as §1, §2

[3] = test system: first line (1L) metastatic NSCLC; experiment: Real-world progression free survival analysis by CD155 gene expression, de-identified health records; assay type: in vivo, human
Source text: This example retrospectively evaluated the predictive value of CD155 expression for a clinical outcome using real-world data. […] Real-world progression free survival (rwPFS) is defined in this study as the time from treatment initiation until the first occurrence of progressive disease (PD) or death up to the end date of the same line of therapy. […] Otherwise, patients were censored at the last known follow up time. rwPFS is right censored at 36 months. The analysis was performed using de-identified health records of first line (1L) metastatic NSCLC patients treated with chemotherapy only, treated with pembrolizumab monotherapy, or treated with chemotherapy and pembrolizumab. A filter was applied to select for records where biopsies were obtained ≤12 months prior to the first dose of treatment. Records were excluded if the patient had EGF or ALK alterations.
The health records for each patient included information such as sex, race, smoking status, biopsy site, stage at time of diagnosis, subtype of lung cancer (adenocarcinoma or squamous cell carcinoma), tumor purity, PD-L1 expression, treatment (chemotherapy, pembrolizumab, or chemotherapy+pembrolizumab), clinical outcome, etc., as well as gene expression data for a number of targets (e.g., TIGIT, CD155, CD73). Chemotherapy for adenocarcinomas was cisplatin or carboplatin+pemetrexed. Chemotherapy for squamous cell carcinomas was either carboplatin and paclitaxel or nab-paclitaxel. Gene expression was quantified from RNA-seq data as transcript per million (tpm). Kaplan-Meier models were performed by gene and according to the following breakdowns: NSCLC subtype (all; adenocarcinoma only; squamous cell carcinoma only), PD-L1 expression (all; <1% TPS; 1-49% TPS; ≥50% TPS), and treatment (chemotherapy only, pembrolizumab only, chemotherapy and pembrolizumab). Results presented as Kaplan-Meier (KM) plots splitting high and low gene expressors into different groups, whereby high gene expression was defined as expression equal to or greater than a cut-off value determined by one of several threshold methodologies (e.g., median, 1st tertile (1st third vs last two thirds), 2nd tertile (two thirds vs. last third) and MaxStat (an outcome-oriented method providing a value of a cutpoint that corresponds to the most significant relation with outcome). Cox Proportional-Hazards tests were used to assess the effect of gene expression as a continuous variable, and hazard ratios were provided with each KM plot using the low gene expressor group as a reference.

[4] = test system: FcγR isotypes I, IIA, JIB, IIIA, and IIIB; design: dose or concentration left out as unconfirmed; settings: compared with wild-type IgG1 control antibody; cited from earlier work
[5] = target: T1, FcγR-IIIA (V158 high-affinity variant) (Homo sapiens, UniProt P08637, F176V); design: dose or concentration left out as unconfirmed; settings: cited from earlier work
T1 construct: expressed in transfected cells

[6] = test system: Jurkat cell line stably overexpressing human TIGIT; settings: increasing concentrations up to 33 nM; cited from earlier work

T1 sequence (P08637 17-254 F176V): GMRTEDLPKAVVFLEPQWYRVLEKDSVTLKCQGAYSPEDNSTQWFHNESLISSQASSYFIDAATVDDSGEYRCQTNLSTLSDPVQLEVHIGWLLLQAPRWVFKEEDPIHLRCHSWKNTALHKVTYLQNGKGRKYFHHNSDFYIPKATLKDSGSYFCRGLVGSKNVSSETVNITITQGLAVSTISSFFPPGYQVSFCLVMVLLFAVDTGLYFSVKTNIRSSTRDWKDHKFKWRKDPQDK

O=C1[O][Pt]2([NH][C@@H]3CCCC[C@H]3[NH]2)[O]C1=O [OXA, oxaliplatin]
TCF-1 positivity in tumoral CD8+ T cells (MC38 tumors): increase | intratumoral monocytes (MC38 tumors): decreases | tumor neutrophils (MC38 tumors): increase | expression of PD-L1 and CD155 ligands (MC38 cells [1]): increased expression | cancer cell death (MC38 cells [2]): ~100%

pembrolizumab
Median real-world progression-free survival (rwPFS) ([3]; CD155 High, threshold method Median, PD-L1 TPS 1-49%): 5.4 mo | Median real-world progression-free survival (rwPFS) ([3]; CD155 High, threshold method Median, PD-L1 TPS <1%): 13.8 mo | Median real-world progression-free survival (rwPFS) ([3]; CD155 High, threshold method Median, PD-L1 TPS All): 7.67 mo | Median real-world progression-free survival (rwPFS) ([3]; CD155 High, threshold method Median, PD-L1 TPS ≥50%): 8.53 mo | Median real-world progression-free survival (rwPFS) ([3]; CD155 High, threshold method q33, PD-L1 TPS 1-49%): 4.63 mo | Median real-world progression-free survival (rwPFS) ([3]; CD155 High, threshold method q33, PD-L1 TPS <1%): 8.1 mo | Median real-world progression-free survival (rwPFS) ([3]; CD155 High, threshold method q33, PD-L1 TPS All): 8.07 mo | Median real-world progression-free survival (rwPFS) ([3]; CD155 High, threshold method q33, PD-L1 TPS ≥50%): 8.63 mo | Median real-world progression-free survival (rwPFS) ([3]; CD155 High, threshold method q67, PD-L1 TPS 1-49%): 3.93 mo | Median real-world progression-free survival (rwPFS) ([3]; CD155 High, threshold method q67, PD-L1 TPS <1%): 13.8 mo | Median real-world progression-free survival (rwPFS) ([3]; CD155 High, threshold method q67, PD-L1 TPS All): 7.03 mo | Median real-world progression-free survival (rwPFS) ([3]; CD155 High, threshold method q67, PD-L1 TPS ≥50%): 7.23 mo | Median real-world progression-free survival (rwPFS) ([3]; CD155 Low, threshold method Median, PD-L1 TPS 1-49%): 6.2 mo | Median real-world progression-free survival (rwPFS) ([3]; CD155 Low, threshold method Median, PD-L1 TPS <1%): 8.1 mo | Median real-world progression-free survival (rwPFS) ([3]; CD155 Low, threshold method Median, PD-L1 TPS All): 10.3 mo | Median real-world progression-free survival (rwPFS) ([3]; CD155 Low, threshold method Median, PD-L1 TPS ≥50%): 14.1 mo | Median real-world progression-free survival (rwPFS) ([3]; CD155 Low, threshold method q33, PD-L1 TPS 1-49%): 9.67 mo | Median real-world progression-free survival (rwPFS) ([3]; CD155 Low, threshold method q33, PD-L1 TPS <1%): 8.1 mo | Median real-world progression-free survival (rwPFS) ([3]; CD155 Low, threshold method q33, PD-L1 TPS All): 13.3 mo | Median real-world progression-free survival (rwPFS) ([3]; CD155 Low, threshold method q33, PD-L1 TPS ≥50%): 17.1 mo | Median real-world progression-free survival (rwPFS) ([3]; CD155 Low, threshold method q67, PD-L1 TPS 1-49%): 7.1 mo | Median real-world progression-free survival (rwPFS) ([3]; CD155 Low, threshold method q67, PD-L1 TPS <1%): 8.1 mo | Median real-world progression-free survival (rwPFS) ([3]; CD155 Low, threshold method q67, PD-L1 TPS All): 9.67 mo | Median real-world progression-free survival (rwPFS) ([3]; CD155 Low, threshold method q67, PD-L1 TPS ≥50%): 11.7 mo

B1: domvanalimab (antibody, chains of the INN, looked up, V domains shown)
VH: EVQLVESGGGLVQPGGSLRLSCAASGFTFSNFGMHWVRQAPGKGLEWVAFISSGSSSIYYADTVKGRFTISRDNAKNSLYLQMNSLRAEDTAVYYCARMRLDYYAMDYWGQGTMVTVSS
VL: DIQMTQSPSSLSASVGDRVTITCRASKSISKYLAWYQQKPGKAPKLLIYSGSTLQSGVPSRFSGSGSGTDFTLTISSLQPEDFATYYCQQHNEYPWTFGGGTKVEIK
notes: Fc-silent anti-TIGIT antibody with engineered IgG1 Fc
binding to FcγR isotypes [4]: no significant binding | activity in FcγR-IIIA effector reporter bioassay [5]: inactive | complement dependent cytotoxicity [6]: No cytotoxicity
